Reference: patent publication US20250361268A1, “NOVEL ANTI-INFLAMMATORY PEPTIDE AND USE THEREOF” (NOVACELL TECHNOLOGY INC., priority 2022, published 2025)
Peptide text beside a SMILES is read from it.

Columns and labels:
[1] = biological target: T1, FPR1 (Homo sapiens, UniProt P21462); test: Change in calcium activity by peptide, FPR1 activation effect; assay type: cell-based; conditions: calcium activity (Fura-2), graded per Table 3, read-out: EC50 for [Ca^2+] FPR1
T1 sequence (P21462 1-350): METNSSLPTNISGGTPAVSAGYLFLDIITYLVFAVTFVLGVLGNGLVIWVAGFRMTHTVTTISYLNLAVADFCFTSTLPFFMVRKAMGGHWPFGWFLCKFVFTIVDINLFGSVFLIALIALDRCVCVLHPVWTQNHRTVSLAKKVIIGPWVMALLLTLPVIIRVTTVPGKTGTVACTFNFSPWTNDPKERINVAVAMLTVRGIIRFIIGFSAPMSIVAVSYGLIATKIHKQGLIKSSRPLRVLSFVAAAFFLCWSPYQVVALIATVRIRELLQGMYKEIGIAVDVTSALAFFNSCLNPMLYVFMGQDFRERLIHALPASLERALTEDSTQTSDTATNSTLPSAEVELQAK
Method in brief: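 Calcium flux induced by peptide addition was monitored on a FlexStation 3 plate reader. Before this, cells seeded a day earlier (3×10^5/well) took up the Fura-2 dye for 1 h at 37 °C plus 30 min dark at room temperature.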

[2] = system: RAW264.7 cell line; test: Cytokine inhibition ability: LPS-induced cytokine gene expression in RAW264.7 macrophages; assay type: cell-based, mouse; conditions: grade of reduction rate of gene expression, peptide 100 nM, LPS 200 ng/mL, 6 hours
Procedure: The present inventors observed the cytokine inhibition ability of the immunomodulatory peptide candidates prepared according to one example of the present invention. Specifically, to confirm whether the peptides reduce inflammatory responses in cells, changes in cytokine gene expression in cells upon inflammation was measured.
The present inventors used a RAW264.7 cell line, that is, mouse macrophages, and used lipopolysaccharide (LPS; Sigma-Aldrich, #L2630), which is the main component of a gram-negative bacterial cell wall, as a material causing an inflammatory response. A peptide that had been dissolved in water at 100 μM was prepared.
In the present experiment, the cells were cultured in a DMEM (Lonza, #BE12-604F) containing 10% FBS and 1% penicillin-streptomycin under conditions of 37° C. and 5% CO2.
The cells were plated in a 24-well plate (Costar, #3603) at a density of 2.5×10^5 cells/well. After 24 hours, the prepared cells were treated with the peptide at 100 nM. After incubation at 37° C. for 30 minutes, to induce inflammation, 200 ng/mL of LPS was treated. After incubation at 37° C. for 6 hours, the cells in a medium-free state were treated with TRIzol™ (Invitrogen, #15596018) to lyse the cells. Through the given experimental method, RNA was obtained, cDNA was produced using a reverse transcriptase (Promega, #M1705). Afterward, a cytokine expression level was measured using SYBR Green (Enzynomics, RT530) and mouse primers of each inflammatory cytokine gene (TNFα, IL-6, and IL-1β).

[3] = biological target: T2, FPR2 (Homo sapiens, UniProt P25090); test: Change in calcium activity by peptide (Fura-2) in RBL cells overexpressing FPR2; assay type: cell-based; conditions: calcium activity (Fura-2), graded per Table 3, read-out: EC50 for [Ca^2+] FPR2
T2 construct: expressed in transfected cells; host or cells: RBL cells (RBL-FPR2)
T2 sequence (P25090 1-351): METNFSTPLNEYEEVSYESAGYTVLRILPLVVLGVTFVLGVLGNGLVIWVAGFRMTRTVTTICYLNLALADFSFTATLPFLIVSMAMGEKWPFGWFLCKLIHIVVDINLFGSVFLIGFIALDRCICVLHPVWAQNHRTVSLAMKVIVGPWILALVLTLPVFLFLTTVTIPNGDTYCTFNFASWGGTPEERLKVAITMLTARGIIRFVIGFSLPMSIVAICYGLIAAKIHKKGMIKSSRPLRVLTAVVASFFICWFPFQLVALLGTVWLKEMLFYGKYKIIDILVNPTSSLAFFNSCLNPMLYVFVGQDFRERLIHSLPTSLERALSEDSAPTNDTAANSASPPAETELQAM
Method in brief: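 Peptide-induced intracellular calcium change measured by Fura-2 fluorescence on a plate reader. Cells: RBL line overexpressing FPR2, dye-loaded 1 h at 37 °C then 30 min at RT in dark; peptides from 0.5 mM water/50% DMSO stocks, diluted in HBSS with 20 mM HEPES.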

Row | EC50 [1] [nM] | EC50 [3] [nM] | SMILES | Cytokine inhibition ability IL-1β [2] | Cytokine inhibition ability IL-6 [2] | Cytokine inhibition ability TNFα [2]
1 | > 10000 | < 10 | CSCC[C@H](NC(=O)[C@@H](N)CCCNC(=N)N)C(=O)N[C@@H](CCCNC(=N)N)C(=O)N[C@@H](Cc1ccc(O)cc1)C(=O)N[C@@H](Cc1c[nH]c2ccccc12)C(=O)N[C@@H](Cc1ccc(O)cc1)C(=O)N[C@H](CCSC)C(N)=O [Peptide 81] (HELM PEPTIDE1{R.M.R.Y.W.Y.[dM].[am]}$$$$V2.0) | A (81%-100%) | C (41%-60%) | A (81%-100%)
2 | 1000 to 10000 | 11 to 100 | CCCCCCCC(=O)N[C@@H](CCSC)C(=O)N[C@@H](CCCCN)C(=O)N[C@@H](Cc1ccc(O)cc1)C(=O)N[C@@H](Cc1c[nH]c2ccccc12)C(=O)N1CCC[C@H]1C(=O)N[C@H](CCSC)C(N)=O [Peptide 116] (HELM PEPTIDE1{[CCCCCCCC(=O)[*:2]].M.K.Y.W.P.[dM].[am]}$$$$V2.0) | B (61%-80%) | B (61%-80%) | B (61%-80%)
3 | > 10000 | 11 to 100 | CCCCCCCC(=O)N[C@@H](CCCCN)C(=O)N[C@@H](CCSC)C(=O)N[C@@H](CCCCN)C(=O)N[C@@H](Cc1ccc(O)cc1)C(=O)N[C@@H](CCCCN)C(=O)N1CCC[C@H]1C(=O)N[C@H](CCSC)C(N)=O [Peptide 69] (HELM PEPTIDE1{[CCCCCCCC(=O)[*:2]].K.M.K.Y.K.P.[dM].[am]}$$$$V2.0) | A (81%-100%) | C (41%-60%) | B (61%-80%)
4 | > 10000 | < 10 | CSCC[C@H](N)C(=O)N[C@@H](CCCCN)C(=O)N[C@@H](Cc1ccc(O)cc1)C(=O)N[C@@H](CCCCN)C(=O)N1CCC[C@H]1C(=O)N[C@H](CCSC)C(N)=O [Peptide 70] (HELM PEPTIDE1{M.K.Y.K.P.[dM].[am]}$$$$V2.0) | A (81%-100%) | D (21%-40%) | C (41%-60%)
5 | > 10000 | 11 to 100 | CCCC(=O)N[C@@H](CCSC)C(=O)N[C@@H](CCCCN)C(=O)N[C@@H](Cc1ccc(O)cc1)C(=O)N[C@@H](CCCCN)C(=O)N1CCC[C@H]1C(=O)N[C@H](CCSC)C(N)=O [Peptide 72] (HELM PEPTIDE1{[CCCC(=O)[*:2]].M.K.Y.K.P.[dM].[am]}$$$$V2.0) | B (61%-80%) | D (21%-40%) | B (61%-80%)
6 | > 10000 | 11 to 100 | CSCC[C@H](NC(=O)[C@H](CCCNC(=N)N)NC(C)=O)C(=O)N[C@@H](CCCNC(=N)N)C(=O)N[C@@H](Cc1ccc(O)cc1)C(=O)N[C@@H](CCCCN)C(=O)N[C@@H](Cc1ccc(O)cc1)C(=O)N[C@H](CCSC)C(N)=O [Peptide 39] (HELM PEPTIDE1{[ac].R.M.R.Y.K.Y.[dM].[am]}$$$$V2.0) | B (61%-80%) | D (21%-40%) | B (61%-80%)
7 | > 10000 | 11 to 100 | CSCC[C@H](NC(C)=O)C(=O)N[C@@H](CCCCN)C(=O)N[C@@H](Cc1ccc(O)cc1)C(=O)N[C@@H](CCCCN)C(=O)N1CCC[C@H]1C(=O)N[C@H](CCSC)C(N)=O [Peptide 71] (HELM PEPTIDE1{[ac].M.K.Y.K.P.[dM].[am]}$$$$V2.0) | A (81%-100%) | C (41%-60%) | C (41%-60%)
8 | > 10000 | < 10 | CSCC[C@H](N)C(=O)N[C@@H](CCCCN)C(=O)N[C@@H](Cc1ccc(O)cc1)C(=O)N[C@@H](CCCCN)C(=O)N[C@H](C(=O)N[C@H](CCSC)C(N)=O)C(C)C [Peptide 17] (HELM PEPTIDE1{M.K.Y.K.V.[dM].[am]}$$$$V2.0) | B (61%-80%) | D (21%-40%) | B (61%-80%)
9 | > 10000 | < 10 | CSCC[C@H](NC(C)=O)C(=O)N[C@@H](CCCCN)C(=O)N[C@@H](Cc1ccc(O)cc1)C(=O)N[C@@H](CCCCN)C(=O)N[C@H](C(=O)N[C@H](CCSC)C(N)=O)C(C)C [Peptide 18] (HELM PEPTIDE1{[ac].M.K.Y.K.V.[dM].[am]}$$$$V2.0) | A (81%-100%) | D (21%-40%) | A (81%-100%)
10 | > 10000 | 11 to 100 | CCCCCCCC(=O)N[C@@H](CCSC)C(=O)N[C@@H](CCCCN)C(=O)N[C@@H](Cc1ccc(O)cc1)C(=O)N[C@@H](CCCCN)C(=O)N1CCC[C@H]1C(=O)N[C@H](CCSC)C(N)=O [Peptide 73] (HELM PEPTIDE1{[CCCCCCCC(=O)[*:2]].M.K.Y.K.P.[dM].[am]}$$$$V2.0) | B (61%-80%) | D (21%-40%) | B (61%-80%)
11 | 1000 to 10000 | < 10 | CSCC[C@H](N)C(=O)N[C@@H](CCCCN)C(=O)N[C@@H](Cc1ccc(O)cc1)C(=O)N[C@@H](Cc1c[nH]c2ccccc12)C(=O)N1CCC[C@H]1C(=O)N[C@H](CCSC)C(N)=O [Peptide 113] (HELM PEPTIDE1{M.K.Y.W.P.[dM].[am]}$$$$V2.0) | D (21%-40%) | B (61%-80%) | D (21%-40%)
12 | > 10000 | < 10 | CSCC[C@H](NC(=O)[C@@H](N)CCCNC(=N)N)C(=O)N[C@@H](CCCNC(=N)N)C(=O)N[C@@H](Cc1ccc(O)cc1)C(=O)N[C@@H](CCCCN)C(=O)N[C@@H](Cc1ccc(O)cc1)C(=O)N[C@H](CCSC)C(N)=O [Peptide 38] (HELM PEPTIDE1{R.M.R.Y.K.Y.[dM].[am]}$$$$V2.0) | A (81%-100%) | C (41%-60%) | B (61%-80%)
13 | > 10000 | < 10 | CSCC[C@H](NC(C)=O)C(=O)N[C@@H](CCCNC(=N)N)C(=O)N[C@@H](Cc1ccc(O)cc1)C(=O)N[C@@H](CCCCN)C(=O)N1CCC[C@H]1C(=O)N[C@H](CCSC)C(N)=O [Peptide 55] (HELM PEPTIDE1{[ac].M.R.Y.K.P.[dM].[am]}$$$$V2.0) | A (81%-100%) | B (61%-80%) | B (61%-80%)
14 | > 10000 | < 10 | CSCC[C@H](NC(=O)[C@H](CCCNC(=N)N)NC(C)=O)C(=O)N[C@@H](CCCNC(=N)N)C(=O)N[C@@H](Cc1ccc(O)cc1)C(=O)N[C@@H](Cc1c[nH]c2ccccc12)C(=O)N[C@@H](Cc1ccc(O)cc1)C(=O)N[C@H](CCSC)C(N)=O [Peptide 82] (HELM PEPTIDE1{[ac].R.M.R.Y.W.Y.[dM].[am]}$$$$V2.0) | B (61%-80%) | D (21%-40%) | A (81%-100%)
15 | > 10000 | < 10 | CCCC(=O)N[C@@H](CCSC)C(=O)N[C@@H](CCCCN)C(=O)N[C@@H](Cc1ccc(O)cc1)C(=O)N[C@@H](CCCCN)C(=O)N[C@H](C(=O)N[C@H](CCSC)C(N)=O)C(C)C [Peptide 19] (HELM PEPTIDE1{[CCCC(=O)[*:2]].M.K.Y.K.V.[dM].[am]}$$$$V2.0) | A (81%-100%) | B (61%-80%) | B (61%-80%)
